The test system of one experiment is A549. The experiment in a line: Antiproliferative activity against human A549 cells assessed as inhibition of cell viability by MTT assay. The experiment is classed as functional, cell-based. Background: Tetrazolium dyes change colour on reduction, which living cells bring about.
The next experiment relates to MDA-MB-231. Kind of experiment: Antiproliferative activity against human MDA-MB-231 cells assessed as inhibition of cell viability by MTT assay. The experiment is classed as functional, cell-based.
The test system of experiment [1] is Neutrophil. Kind of experiment: Anti-inflammatory activity against human neutrophils assessed as inhibition in fMLF/CB-induced elastase release at 10 uM preincubated for 5 mins followed by fMLF addition after priming with CB for 3 mins and measured after 10 mins by spectrophotometric analysis relative to control. The experiment is classed as functional.
Experiment [2] relates to Neutrophil. The experiment in a line: Anti-inflammatory activity against human neutrophils assessed as inhibition of fMLF/CB-induced superoxide anion generation preincubated for 5 mins followed by fMLF addition after priming with CB for 3 mins and measured after 10 mins by spectrophotometric analysis. The experiment is classed as functional, cell-based.
In experiment [3] the test system is Neutrophil. Kind of experiment: Anti-inflammatory activity against human neutrophils assessed as inhibition of fMLF/CB-induced superoxide anion generation at 10 uM preincubated for 5 mins followed by fMLF addition after priming with CB for 3 mins and measured after 10 mins by spectrophotometric analysis relative to control. The experiment is classed as functional.

Another experiment has as its system HepG2. Kind of experiment: Antiproliferative activity against human HepG2 cells assessed as inhibition of cell viability by MTT assay. The format is functional, cell-based.
For experiment [4], the system named is Neutrophil. Kind of experiment: Anti-inflammatory activity against human neutrophils assessed as inhibition of fMLF/CB-induced elastase release preincubated for 5 mins followed by fMLF addition after priming with CB for 3 mins and measured after 10 mins by spectrophotometric analysis. The experiment is classed as functional, cell-based.
Setting [5] is: Homo sapiens, A549, read-out: IC50.
[6] abbreviates: Homo sapiens, MDA-MB-231, read-out: IC50.
Where [7] appears, read: Homo sapiens, HepG2, read-out: IC50.

Values after ≈ are worked out from the molar mass of the structure shown.

Consider `C=C1CC[C@@H]2[C@](C)(CCC[C@]2(C)C(=O)O)[C@H]1CC/C(C)=C/COC(C)=O`, for which the 50% inhibitory concentration (IC50) (in general, the concentration that inhibits the measured activity by half) is 8.9 µg/mL (≈ 24.6 µM) in the experiment on A549 (setting [5]) and 14.8 µg/mL (≈ 40.8 µM) in the experiment on MDA-MB-231 (setting [6]).

Consider `C=C1CC[C@H]2[C@@](C)(CO)CCC[C@]2(C)[C@H]1CC/C(C)=C/CO`, for which the inhibition (in general, the drop in the measured response relative to a control, in per cent) at 10 µM in the experiment on Neutrophil [1] came to 22.3%; in the experiment on Neutrophil [3], 50.7%. Also, the IC50 with Neutrophil [2] amounted to 9.6 µM.

Regarding `C=C(C=O)CC[C@H]1C(=C)CC[C@@H]2[C@]1(C)CCC[C@]2(C)C(=O)O`, the half-maximal inhibitory concentration (IC50) in the experiment with MDA-MB-231 (setting [6]) was determined as 14.1 µg/mL (≈ 46.3 µM).

With `C=C(CC[C@H]1C(=C)CC[C@H]2[C@@](C)(CO)CCC[C@]12C)C(=O)CO`, the IC50 came to 19.8 µg/mL (≈ 61.8 µM) in the experiment on A549 (setting [5]) and 19.9 µg/mL (≈ 62.1 µM) with MDA-MB-231 (setting [6]).

Consider `C=C(C=O)CC[C@H]1C(=C)CC[C@@H]2[C@]1(C)CCC[C@@]2(C)O`, for which the IC50 in the experiment with MDA-MB-231 (setting [6]) was 14.8 µg/mL (≈ 53.5 µM).

In the case of `C=C1CC[C@@H]2[C@](C)(CO)CCC[C@@]2(C)[C@@H]1CCC(C)=O`, the inhibition at 10 µM in the experiment on Neutrophil [1] stood at 15.7%; in the experiment with Neutrophil [3], 33.5%.

For the molecule `COc1cc(C[C@H]2C(=O)OC[C@@H]2Cc2ccc(OC)c(OC)c2)ccc1O` [ARCTIGENIN], the figures for the concentration for half-maximal inhibition (IC50) in the experiment on A549 (setting [5]), in the experiment with MDA-MB-231 (setting [6]) and with HepG2 (setting [7]) were 0.8 µg/mL (≈ 2.15 µM), 1.1 µg/mL (≈ 2.95 µM) and 2.8 µg/mL (≈ 7.52 µM), respectively.

Consider `COc1cc([C@@H]2c3cc4c(cc3C[C@H]3COC(=O)[C@@H]32)OCO4)cc(OC)c1OC` [DESOXYPODOPHYLLOTOXIN], for which the half-maximal inhibitory concentration (IC50) with A549 (setting [5]) worked out at 0.004 µg/mL (≈ 0.01 µM); in the experiment on MDA-MB-231 (setting [6]), 0.07 µg/mL (≈ 0.176 µM); in the experiment with HepG2 (setting [7]), 14.5 µg/mL (≈ 36.4 µM).

For the molecule `COc1cccc2c1C(=O)c1c(O)c3c(c(O)c1C2=O)C[C@@](O)(C(=O)CO)C[C@@H]3O[C@H]1C[C@H](N)[C@H](O)[C@H](C)O1` [DOXORUBICIN], the IC50 amounted to 0.057 µg/mL (≈ 0.105 µM) in the experiment on A549 (setting [5]) and 0.6 µg/mL (≈ 1.1 µM) with MDA-MB-231 (setting [6]).

For `C=C1CC[C@@H]2[C@](C)(CCC[C@]2(C)C(=O)O)[C@H]1CC/C(C)=C/CO` [ISOCUPRESSIC ACID], the results for the inhibition at 10 µM in the experiment with Neutrophil [1] and in the experiment with Neutrophil [3] were 19.9% and 78%, respectively. Besides, the IC50 result in the experiment with A549 (a549) is “Not Active”; in the experiment on Neutrophil [2], 4.8 µM; in the experiment on MDA-MB-231 (mda-mb-231), “Not Active”; in the experiment on HepG2 (hepg2), “Not Active”.

Regarding `COc1cc(C[C@H]2COC(=O)[C@@H]2Cc2ccc(O)c(OC)c2)ccc1O` [MATAIRESINOL], the inhibition at 10 µM is 61.9% in the experiment with Neutrophil [1] and 95.2% in the experiment on Neutrophil [3]. For the same molecule, the IC50 with Neutrophil [2] is 2.7 µM; with Neutrophil [4], 6.6 µM; with HepG2 (setting [7]) it was 15.1 µg/mL (≈ 42.1 µM).

Source of the values: ChEMBL document CHEMBL4616643, “Cytotoxic and anti-inflammatory effects of lignans and diterpenes from Cupressus macrocarpa” (Bioorg Med Chem Lett, 2020).
